According to the supplement of paper PMC10307832:

How the values were obtained:
Experiment in all cases: relative viability (nuclei count vs DMSO), 5 days (fraction); higher = more cells survive
Kobe2602 + Lapatinib = compound: C1=CC(=CC=C1NC(=S)NNC2=C(C=C(C=C2[N+](=O)[O-])C(F)(F)F)[N+](=O)[O-])F [Kobe2602] + CS(=O)(=O)CCNCc1ccc(-c2ccc3ncnc(Nc4ccc(OCc5cccc(F)c5)c(Cl)c4)c3c2)o1 [Lapatinib] (partner 2 µM)
Method in brief: (§1)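 Lung cancer cell lines in 1536-well plates got either a single drug or a fixed anchor-drug dose together with five library-drug doses (not always all listed) in √10 steps, by pin tool, on the day after seeding. Nuclei were counted after 5 days, and relative viability is the treated-to-vehicle ratio of nuclei counts. Values are medians of duplicate plates.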

Cabozantinib + Lapatinib = compound: COc1cc2nccc(Oc3ccc(NC(=O)C4(C(=O)Nc5ccc(F)cc5)CC4)cc3)c2cc1OC [Cabozantinib] + CS(=O)(=O)CCNCc1ccc(-c2ccc3ncnc(Nc4ccc(OCc5cccc(F)c5)c(Cl)c4)c3c2)o1 [Lapatinib] (partner 2 µM)
Method in brief: as §1

Cabozantinib + Dasatinib = compound: COc1cc2nccc(Oc3ccc(NC(=O)C4(C(=O)Nc5ccc(F)cc5)CC4)cc3)c2cc1OC [Cabozantinib] + Cc1nc(Nc2ncc(C(=O)Nc3c(C)cccc3Cl)s2)cc(N2CCN(CCO)CC2)n1 [Dasatinib] (partner 0.075 µM)
Method in brief: as §1

[1] = compound: COc1cc2nccc(Oc3ccc(NC(=O)C4(C(=O)Nc5ccc(F)cc5)CC4)cc3)c2cc1OC [Cabozantinib] + CC(=O)Nc1cccc(-n2c(=O)n(C3CC3)c(=O)c3c(Nc4ccc(I)cc4F)n(C)c(=O)c(C)c32)c1 [Trametinib] (partner 0.02 µM)
Method in brief: as §1

Row | Cell Line | relative viability (Kobe2602 + Lapatinib; first compound 0.2 µM) | relative viability (Kobe2602 + Lapatinib; first compound 0.6325 µM) | relative viability (Kobe2602 + Lapatinib; first compound 2 µM) | relative viability (Kobe2602 + Lapatinib; first compound 6.325 µM) | relative viability (Kobe2602 + Lapatinib; first compound 20 µM) | relative viability (Cabozantinib + Lapatinib; first compound 0.02 µM) | relative viability (Cabozantinib + Lapatinib; first compound 0.06325 µM) | relative viability (Cabozantinib + Lapatinib; first compound 0.2 µM) | relative viability (Cabozantinib + Lapatinib; first compound 0.6325 µM) | relative viability (Cabozantinib + Lapatinib; first compound 2 µM) | relative viability (Cabozantinib + Dasatinib; first compound 0.02 µM) | relative viability (Cabozantinib + Dasatinib; first compound 0.06325 µM) | relative viability (Cabozantinib + Dasatinib; first compound 0.2 µM) | relative viability (Cabozantinib + Dasatinib; first compound 0.6325 µM) | relative viability (Cabozantinib + Dasatinib; first compound 2 µM) | relative viability ([1]; first compound 0.02 µM) | relative viability ([1]; first compound 0.06325 µM) | relative viability ([1]; first compound 0.2 µM) | relative viability ([1]; first compound 0.6325 µM) | relative viability ([1]; first compound 2 µM)
1 | EMC-BAC-2 | 0.89 | 0.935 | 0.904 | 0.904 | 0.909 | 0.841 | 0.927 | 0.88 | 0.879 | 0.973 | 0.244 | 0.334 | 0.286 | 0.292 | 0.262 | 0.912 | 0.949 | 0.823 | 0.854 | 0.934
2 | NCI-H1437 | 0.815 | 0.847 | 0.723 | 0.79 | 0.673 | 0.892 | 0.91 | 0.798 | 0.823 | 0.779 | 0.263 | 0.617 | 0.371 | 0.377 | 0.309 | 0.571 | 0.498 | 0.501 | 0.598 | 0.55
3 | NCI-H2405 | 1.05 | 1.17 | 1.01 | 1.2 | 1.33 |  | 1.16 | 1.2 | 1.1 | 1.02 | 0.171 | 0.232 | 0.215 | 0.212 | 0.215 | 0.658 | 0.666 | 0.615 | 0.59 | 0.473
4 | NCI-H1666 | 0.639 | 0.659 |  | 0.468 | 0.592 | 0.693 | 0.621 | 0.677 | 0.712 | 0.595 | 0.727 | 0.899 | 0.766 | 0.839 | 0.795 | 0.845 | 0.83 | 0.798 | 0.883 | 0.878
5 | NCI-H1993 | 0.718 | 0.727 | 0.783 | 0.814 | 0.875 | 0.76 | 0.807 | 0.792 | 0.725 | 0.814 | 0.513 | 0.488 | 0.49 | 0.498 | 0.523 | 0.508 | 0.531 | 0.526 | 0.436 | 0.571
6 | COR-L23 | 0.856 | 1.05 | 1.02 | 0.876 | 0.907 | 1.04 | 1.14 | 0.947 | 1.12 | 0.878 | 0.537 | 0.425 | 0.466 | 0.452 | 0.36 | 0.666 | 0.679 | 0.679 | 0.623 | 0.576
7 | LU99A | 0.989 | 0.921 | 0.959 | 0.97 | 1.07 | 0.896 | 1.07 | 0.985 | 0.996 | 0.931 | 0.461 | 0.715 | 0.412 | 0.448 | 0.523 | 0.475 | 0.56 | 0.535 | 0.573 | 0.41
8 | NCI-H596 | 1.18 | 1.19 | 1.05 | 0.934 | 1.17 | 1.17 | 1.21 | 0.956 | 1.05 | 1.02 | 0.509 | 0.637 | 0.558 | 0.582 | 0.544 | 0.94 | 0.941 | 0.797 | 0.779 | 0.78
9 | NCI-H727 | 0.885 | 0.783 | 0.879 | 0.996 | 0.986 | 0.61 | 1.27 | 0.702 | 0.806 | 0.783 | 0.298 | 0.455 | 0.284 | 0.348 | 0.298 | 0.42 | 0.409 | 0.443 | 0.395 | 0.386
10 | NCI-H1975 | 0.886 | 0.956 | 0.767 | 0.756 | 0.852 | 0.969 | 0.986 | 0.852 | 0.845 | 0.797 | 0.285 | 0.365 | 0.344 | 0.36 | 0.326 | 0.331 | 0.389 | 0.638 | 0.417 | 0.217
11 | NCI-H1355 | 0.942 | 1.01 | 0.992 | 0.876 | 0.929 | 0.825 | 1.12 | 1.02 | 0.979 | 1.03 | 0.563 | 0.78 | 0.73 | 0.678 | 0.734 | 0.433 | 0.462 | 0.441 | 0.421 | 0.435
12 | NCI-H1755 | 1.01 | 1.03 | 0.951 | 1.02 | 1.09 | 1.02 | 1.12 | 1.05 | 0.964 | 0.932 | 0.299 | 0.479 | 0.396 | 0.313 | 0.239 | 0.816 | 0.765 | 0.795 | 0.73 | 0.718
13 | NCI-H2009 | 0.878 | 1.14 | 0.895 | 1.04 | 0.871 | 1.06 | 0.959 | 1 | 0.965 | 0.941 | 0.289 | 0.298 | 0.267 | 0.217 | 0.201 | 0.276 | 0.281 | 0.293 | 0.275 | 0.24
14 | NCI-H1395 | 0.925 | 1.04 | 1.01 | 1.18 | 1.12 | 0.913 | 1.03 | 0.948 | 1.1 | 0.905 | 0.363 | 0.473 | 0.423 | 0.458 | 0.37 | 0.981 | 1.18 | 1.09 | 1.06 | 0.938
15 | HCC-78 | 1.02 | 0.903 |  | 0.418 | 1.18 | 0.458 | 0.922 | 0.348 | 0.305 | 0.286 |  | 0.431 | 0.185 | 0.195 | 0.217 |  | 0.515 | 0.412 | 0.318 | 0.321
16 | NCI-H322M | 0.588 | 0.648 | 0.652 | 0.571 | 0.647 | 0.454 | 0.632 |  | 0.584 | 0.58 | 0.259 | 0.271 | 0.238 | 0.264 | 0.26 | 0.521 | 0.546 | 0.438 | 0.525 | 0.545
